Laboratory results published in ChEMBL document CHEMBL1201862, “PubChem BioAssay data set” (2004).
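Where inhibition never reached the appropriate level, the endpoint shown equals the highest concentration tested. Otherwise, values were interpolated linearly from a five-concentration, 48-hour dose response in 96-well plates. The concentration for 50% growth inhibition is given as GI50.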 The source made the active and inactive calls. No stated cut-off is given here; in the data, active = GI50 up to about 1.1 µM and inactive = higher.

Tests used:
Assay in all cases: DTP human tumour cell line panel, 48 h
UACC-257 = test system: UACC-257
HOP-92 = test system: HOP-92
M14 = test system: M14
M19-MEL = test system: M19-MEL
OVCAR-8 = test system: OVCAR-8
HL-60 = test system: HL-60
KM12 = test system: KM12
SK-OV-3 = test system: SK-OV-3
SF-295 = test system: SF-295
UACC-62 = test system: UACC-62
OVCAR-4 = test system: OVCAR-4
HOP-62 = test system: HOP-62
MOLT-4 = test system: MOLT-4
SK-MEL-5 = test system: SK-MEL-5
OVCAR-3 = test system: OVCAR-3
EKVX = test system: EKVX
MDA-MB-231 = test system: MDA-MB-231
MDA-MB-435 = test system: MDA-MB-435
A498 = test system: A498
T47D = test system: T47D

Measured: GI50

CC1(C)C(=NN=C(N)N)C(C)(C)C1=NN=C(N)N
inactive: UACC-257 > 100 µM | HOP-92 > 100 µM | M14 > 100 µM | M19-MEL > 100 µM | OVCAR-8 > 100 µM | HL-60 > 100 µM | KM12 > 100 µM | SK-OV-3 > 100 µM | SF-295 > 100 µM | UACC-62 > 100 µM | OVCAR-4 > 100 µM | HOP-62 > 10 µM | MOLT-4 > 100 µM | SK-MEL-5 > 100 µM | OVCAR-3 > 100 µM

CCOc1cccc2ccc[n+](CC)c12
inactive: UACC-257 57.9 µM | HOP-92 61 µM | M14 > 100 µM | M19-MEL 41 µM | OVCAR-8 25.2 µM | KM12 49.7 µM | SK-OV-3 > 100 µM | SF-295 45.7 µM | UACC-62 > 100 µM | OVCAR-4 55.1 µM | HOP-62 > 100 µM | MOLT-4 > 100 µM | SK-MEL-5 45.5 µM | EKVX > 100 µM | OVCAR-3 56.1 µM

Cc1cc(=O)c2c(O)cc3c(c2o1)CC=C(COC1OC(COC2OC(CO)C(O)C(O)C2O)C(O)C(O)C1O)CO3 (stereo not given)
inactive: UACC-257 > 100 µM | HOP-92 > 100 µM | M14 > 100 µM | M19-MEL > 100 µM | OVCAR-8 > 100 µM | KM12 > 100 µM | SK-OV-3 > 100 µM | SF-295 > 100 µM | UACC-62 > 100 µM | OVCAR-4 > 100 µM | HOP-62 > 100 µM | MOLT-4 > 100 µM | SK-MEL-5 > 100 µM | EKVX > 100 µM | OVCAR-3 > 100 µM

N#Cc1cn(-c2c3ccccc3nc3ccccc23)c(=O)[nH]c1=O
inactive: UACC-257 4.86 µM | HOP-92 7.73 µM | M14 11.6 µM | M19-MEL 6.46 µM | OVCAR-8 4.85 µM | HL-60 10.6 µM | KM12 7.16 µM | SK-OV-3 3.6 µM | SF-295 5.83 µM | UACC-62 15.8 µM | OVCAR-4 5.14 µM | MOLT-4 4.15 µM | EKVX 18.2 µM | OVCAR-3 8.02 µM

CC1(C)OC(=S)N(c2ccccc2)C12C=Cc1cc3ccccc3nc1S2 (stereo not given)
inactive: UACC-257 > 100 µM | HOP-92 40.3 µM | M14 > 100 µM | M19-MEL 93.8 µM | OVCAR-8 > 100 µM | HL-60 40.9 µM | KM12 > 100 µM | SK-OV-3 > 100 µM | UACC-62 > 100 µM | HOP-62 > 100 µM | MOLT-4 26.9 µM | SK-MEL-5 56.9 µM | EKVX > 100 µM | OVCAR-3 > 100 µM

C[n+]1c(-c2ccc(NC(=O)c3ccc(C(=O)Nc4ccc(-c5cn6ccccc6[n+]5C)cc4)cc3)cc2)cn2ccccc21
inactive: UACC-257 > 100 µM | HOP-92 > 100 µM | M14 > 100 µM | OVCAR-8 > 100 µM | MDA-MB-231 > 42.9 µM | MDA-MB-435 > 67.3 µM | HL-60 23.4 µM | A498 39.1 µM | KM12 > 82.6 µM | SK-OV-3 > 100 µM | SF-295 47.5 µM | UACC-62 > 100 µM | OVCAR-4 > 100 µM | T47D > 100 µM | HOP-62 > 100 µM | MOLT-4 > 67.9 µM | SK-MEL-5 43.1 µM | EKVX > 100 µM | OVCAR-3 > 100 µM

Cc1cc2c(=O)cc(-c3ccc(F)cc3)oc2c(C(=O)O)c1C
inactive: UACC-257 > 100 µM | M14 > 100 µM | M19-MEL > 100 µM | OVCAR-8 > 100 µM | KM12 > 100 µM | SK-OV-3 > 100 µM | SF-295 > 100 µM | UACC-62 > 100 µM | OVCAR-4 > 100 µM | MOLT-4 > 100 µM | SK-MEL-5 > 100 µM | EKVX > 100 µM | OVCAR-3 > 100 µM

COc1ccccc1C1=C2C(=O)N(C)C(c3ccccc3OC)=C2C(=O)N1C
inactive: UACC-257 79.8 µM | HOP-92 30.3 µM | M14 > 100 µM | OVCAR-8 39.2 µM | MDA-MB-231 48.1 µM | MDA-MB-435 > 100 µM | HL-60 > 100 µM | A498 63 µM | KM12 > 100 µM | SK-OV-3 69.8 µM | SF-295 51.4 µM | UACC-62 > 100 µM | OVCAR-4 37.2 µM | T47D 71.3 µM | HOP-62 18.9 µM | MOLT-4 > 100 µM | SK-MEL-5 > 100 µM | EKVX > 100 µM | OVCAR-3 33.5 µM

O=C(O)c1cc2ccccc2c(/N=N/c2ccccc2)c1O
inactive: UACC-257 15.6 µM | HOP-92 55.3 µM | M14 14.9 µM | OVCAR-8 37.2 µM | MDA-MB-231 > 100 µM | MDA-MB-435 15.1 µM | HL-60 10 µM | A498 33.7 µM | KM12 14.9 µM | SK-OV-3 41.9 µM | SF-295 12.4 µM | UACC-62 17.4 µM | OVCAR-4 > 100 µM | T47D 38.1 µM | HOP-62 14.8 µM | MOLT-4 92.7 µM | SK-MEL-5 5.47 µM | EKVX 23.4 µM | OVCAR-3 26.2 µM

COc1ccc2c(=O)c3ccoc3n(CC=C(C)C)c2c1 [ACROPHYLLINE]
inactive: UACC-257 75.2 µM | HOP-92 > 26.2 µM | M14 64.4 µM | OVCAR-8 39.5 µM | MDA-MB-231 72.9 µM | MDA-MB-435 75.9 µM | HL-60 23.6 µM | A498 > 63.2 µM | KM12 45.9 µM | SK-OV-3 44.7 µM | SF-295 57.9 µM | UACC-62 48.4 µM | OVCAR-4 44.7 µM | T47D 36.1 µM | HOP-62 > 79.1 µM | MOLT-4 25.2 µM | SK-MEL-5 32 µM | EKVX 43.9 µM | OVCAR-3 85.7 µM

CCOc1cc(NC(C)=O)ccc1C(=O)NN1C(=O)C(Cl)C1c1ccco1 (stereo not given)
inactive: UACC-257 15.7 µM | HOP-92 19.1 µM | M14 15.4 µM | OVCAR-8 43.5 µM | MDA-MB-231 16.6 µM | MDA-MB-435 15 µM | HL-60 18.4 µM | A498 16.4 µM | KM12 18.5 µM | SK-OV-3 18.3 µM | SF-295 16 µM | UACC-62 12.6 µM | OVCAR-4 14.9 µM | T47D 16.7 µM | HOP-62 17.9 µM | MOLT-4 7.01 µM | SK-MEL-5 13.3 µM | EKVX 17.9 µM | OVCAR-3 16.9 µM

O=[N+]([O-])c1cccc(/C=N/NC2=CS(=O)(=O)C=C2)c1
inactive: UACC-257 > 100 µM | HOP-92 > 100 µM | M14 > 100 µM | OVCAR-8 > 100 µM | MDA-MB-231 > 100 µM | MDA-MB-435 > 100 µM | HL-60 42.6 µM | A498 > 100 µM | KM12 > 100 µM | SK-OV-3 > 100 µM | SF-295 > 100 µM | UACC-62 > 100 µM | OVCAR-4 > 100 µM | T47D > 100 µM | HOP-62 > 100 µM | MOLT-4 > 100 µM | SK-MEL-5 > 100 µM | EKVX > 100 µM | OVCAR-3 > 100 µM
